Laboratory results taken from article PMC12195967, “Cobalt(II) Complexes of 4′–Nitro–Fenamic Acid: Characterization and Biological Evaluation” (Molecules, 2025).
Read-outs that look alike come from different tables or passages of the source.

What was measured:
DPPH radical scavenging = settings: compounds 0.1 mM, DPPH 0.1 mM in ethanol
Description: Antioxidant compounds able to neutralize DPPH radicals are increasingly recognized due to their capability of combating cancer, slowing down the aging process and regulating inflammation. As a result, they could potentially offer protection against rheumatoid arthritis and inflammation. […] In this experiment, NDGA and BHT were used as reference compounds and measurements took place at 30 min and 60 min. […] Such low scavenging activity of DPPH radicals is rather common for metal–NSAID complexes.
(§1) S1 Antioxidant activity assay
(§2) The antioxidant activity of the compound was evaluated via the ability to scavenge in vitro free radicals such as DPPH and ABTS and to reduce H2O2. All the experiments were carried out at least in triplicate and the standard deviation of absorbance was less than 10% […]
S1.1 Determination of the reducing activity of the radical DPPH
To an ethanolic solution of DPPH (0.1 mM) an equal volume solution of the compounds (0.1 mM) in ethanol was added. Absolute ethanol was also used as control solution. The absorbance at 517 nm was recorded at room temperature after 30 and 60 min in order to examine the possible existence of a potential time−dependence of the DPPH radical scavenging activity.[1] The DPPH−scavenging activity of the compounds was expressed as the percentage reduction of the absorbance values of the initial DPPH solution (DPPH%). NDGA and BHT were used as reference compounds. […]

CT DNA = settings: cited from earlier work
[1] = Reduction of hydrogen peroxide; settings: compounds 0.1 mM; phosphate buffer pH 7.4; 10 min
Description: Harmful hydroxyl radicals are released when hydrogen peroxide interacts with transition metal ions, leading to oxidative stress. Consequently, both oxidative stress and the production of reactive oxygen species could be reduced by ^•OH scavengers and H2O2 reducing agents.
as §1
The antioxidant activity of the compound was evaluated via the ability to scavenge in vitro free radicals such as DPPH and ABTS and to reduce H2O2. […]
S1.3 Reduction of hydrogen peroxide
The ability of the compounds to reduce hydrogen peroxide (H2O2) was estimated according to the method described in the literature. The reaction mixture contained 20 μL of each of the tested compounds (0.1 mM) and 5 μL H2O2 solution (40 mM) in phosphate […]
buffer (50 mM, pH 7.4). The absorbance was measured at 230 nm after 10 min. The antioxidant activity (reduction of H2O2) of the compounds was expressed as the percentage decrease of the initial H2O2 solution (H2O2%). […]

[2] = ABTS radical cation scavenging; settings: compounds 0.1 mM; absorbance 734 nm after 1 min
Description: The ABTS-scavenging was measured through the discoloration of a dark green solution containing the cationic radical ABTS^•+, which was induced from the oxidation derived from hydrogen-donating antioxidants, either complexes or standards, and is often considered a marker of total oxidation capacity. […] Such an increase in activity upon coordination is expected for metal–NSAID complexes.
as §1, §2
S1.2 Assay of radical cation ABTS−scavenging activity
The ABTS assay was performed to determine the activity of the compounds to scavenge the radical cation ABTS. Initially, a water solution of ABTS was prepared (2 mM).
ABTS radical cation (ABTS+·) was produced by the reaction of ABTS stock solution with potassium persulfate (0.17 mM) and the mixture was stored in the dark at room temperature for 12−16 h before its use. The ABTS was oxidized incompletely because the stoichiometric reaction ratio of ABTS and potassium persulfate is 1:0.5. The absorbance became maximal and stable only after more than 6 h of reaction although the oxidation of the ABTS started immediately. The radical was stable in this form for more than 2 days when allowed to stand in the dark at room temperature. Afterwards, the ABTS+· solution was diluted in ethanol to an absorbance of 0.70 at 734 nm and 10 μL of diluted compounds or standards (0.1 mM) in DMSO were added. The absorbance was recorded out exactly 1 min after initial mixing.
The ABTS–radical scavenging activity of the compounds was expressed as the percentage inhibition of the absorbance of the initial ABTS solution (ABTS%). […]

[3] = commercially available fenamates

Cc1cc(C(C)(C)C)c(O)c(C(C)(C)C)c1 [BHT, butylated hydroxytoluene, reference compound]
%DPPH-scavenging ability (DPPH%), 30 min (DPPH radical scavenging): 70.83 ± 0.03% | %DPPH-scavenging ability (DPPH%), 60 min (DPPH radical scavenging): 83.39 ± 0.39%

CC[n+]1c(-c2ccccc2)c2cc(N)ccc2c2ccc(N)cc21 [EB, ethidium bromide]
DNA-binding constant Kb (CT DNA; classic DNA intercalator): 123000 M⁻¹

O=C1O[C@H]([C@@H](O)CO)C(O)=C1O [L-ascorbic acid, reference compound]
H2O2-reducing ability (H2O2%) [1]: 58.90 ± 0.52%

CC(Cc1ccc(O)c(O)c1)C(C)Cc1ccc(O)c(O)c1 (stereo not shown) [NDGA, nordihydroguaiaretic acid, reference compound]
%DPPH-scavenging ability (DPPH%), 30 min (DPPH radical scavenging): 94.33 ± 0.11% | %DPPH-scavenging ability (DPPH%), 60 min (DPPH radical scavenging): 90.47 ± 0.42%

Cc1c(C)c2c(c(C)c1O)CCC(C)(C(=O)O)O2 (stereo not shown) [Trolox, 6–hydroxy–2,5,7,8–tetramethylchroman–2–carboxylic acid, reference compound]
%ABTS radical scavenging activity (ABTS%) [2]: 96.50 ± 0.05%

O=C(O)c1ccccc1Nc1cccc(C(F)(F)F)c1 [flufenamic acid]
DNA-binding constant Kb (CT DNA; [3]): 270000 M⁻¹

Cc1cccc(Nc2ccccc2C(=O)O)c1C [mefenamic acid]
DNA-binding constant Kb (CT DNA; [3]): 105000 M⁻¹

Cc1c(Cl)cccc1Nc1ccccc1C(=O)O [tolfenamic acid]
DNA-binding constant Kb (CT DNA; [3]): 50000 M⁻¹
